Data: patent US12653787B2, “Pharmaceutical oral dosage form of Q203” (QURIENT CO., LTD., priority 2019, dated 2026)

What was measured:
[1] = Solubility of Q203 in aqueous solutions (background statement); assay type: physicochemical
[2] = target: cytochrome bc1 (Mycobacterium tuberculosis, UniProt P9WP37); conditions: by inhibiting cytochrome bc1 activity; Pethe et al., Nature Medicine 2013; cited from earlier work
cytochrome bc1, sequence (P9WP37 whole entry, looked up): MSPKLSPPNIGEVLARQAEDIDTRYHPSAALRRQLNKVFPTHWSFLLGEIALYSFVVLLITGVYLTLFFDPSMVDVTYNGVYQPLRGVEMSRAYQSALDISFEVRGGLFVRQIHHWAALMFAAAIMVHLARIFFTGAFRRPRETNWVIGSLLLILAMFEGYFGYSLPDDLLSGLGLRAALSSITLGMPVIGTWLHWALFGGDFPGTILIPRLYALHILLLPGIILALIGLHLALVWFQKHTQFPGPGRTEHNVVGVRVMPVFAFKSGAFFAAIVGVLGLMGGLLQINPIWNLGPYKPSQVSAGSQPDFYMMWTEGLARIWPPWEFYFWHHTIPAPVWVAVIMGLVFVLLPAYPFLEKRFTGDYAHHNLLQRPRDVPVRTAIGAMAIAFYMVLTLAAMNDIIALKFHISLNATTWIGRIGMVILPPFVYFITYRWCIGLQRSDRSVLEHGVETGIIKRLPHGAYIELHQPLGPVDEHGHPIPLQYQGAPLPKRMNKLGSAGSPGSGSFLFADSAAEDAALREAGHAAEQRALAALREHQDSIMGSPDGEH

CCc1nc2ccc(Cl)cn2c1C(=O)NCc1ccc(N2CCC(c3ccc(OC(F)(F)F)cc3)CC2)cc1 [Example Q203, 6-chloro-2-ethyl-N-(4-(4-(4-(trifluoromethoxy)phenyl)piperidine-1-yl)benzyl)imidazo[1,2-a]pyridine-3-carboxamide]
solubility in aqueous solutions [1]: rather low solubility
activity against tuberculosis [2]: active against tuberculosis
